Experimental findings from US20210047366A1, “ANDRIAS DAVIDIANUS CARTILAGE PREPARATION” (TSINGHUA UNIVERSITY, priority 2017, published 2021) are described below.

No end group written: not given here.

For this test, the target named is XOD (xanthine oxidase) enzyme (Sigma, derived from milk) (Bos taurus, UniProt P80457). Kind of test: XOD enzyme activity inhibition (XOD enzyme activity detection kit, uric acid absorption at 295 nm). The note with it: for IC50: half-inhibitory concentration on XOD; for XOD enzyme activity inhibition: concentration three times the half-inhibitory concentration.
XOD (xanthine oxidase) enzyme (Sigma, derived from milk), sequence (P80457 whole entry): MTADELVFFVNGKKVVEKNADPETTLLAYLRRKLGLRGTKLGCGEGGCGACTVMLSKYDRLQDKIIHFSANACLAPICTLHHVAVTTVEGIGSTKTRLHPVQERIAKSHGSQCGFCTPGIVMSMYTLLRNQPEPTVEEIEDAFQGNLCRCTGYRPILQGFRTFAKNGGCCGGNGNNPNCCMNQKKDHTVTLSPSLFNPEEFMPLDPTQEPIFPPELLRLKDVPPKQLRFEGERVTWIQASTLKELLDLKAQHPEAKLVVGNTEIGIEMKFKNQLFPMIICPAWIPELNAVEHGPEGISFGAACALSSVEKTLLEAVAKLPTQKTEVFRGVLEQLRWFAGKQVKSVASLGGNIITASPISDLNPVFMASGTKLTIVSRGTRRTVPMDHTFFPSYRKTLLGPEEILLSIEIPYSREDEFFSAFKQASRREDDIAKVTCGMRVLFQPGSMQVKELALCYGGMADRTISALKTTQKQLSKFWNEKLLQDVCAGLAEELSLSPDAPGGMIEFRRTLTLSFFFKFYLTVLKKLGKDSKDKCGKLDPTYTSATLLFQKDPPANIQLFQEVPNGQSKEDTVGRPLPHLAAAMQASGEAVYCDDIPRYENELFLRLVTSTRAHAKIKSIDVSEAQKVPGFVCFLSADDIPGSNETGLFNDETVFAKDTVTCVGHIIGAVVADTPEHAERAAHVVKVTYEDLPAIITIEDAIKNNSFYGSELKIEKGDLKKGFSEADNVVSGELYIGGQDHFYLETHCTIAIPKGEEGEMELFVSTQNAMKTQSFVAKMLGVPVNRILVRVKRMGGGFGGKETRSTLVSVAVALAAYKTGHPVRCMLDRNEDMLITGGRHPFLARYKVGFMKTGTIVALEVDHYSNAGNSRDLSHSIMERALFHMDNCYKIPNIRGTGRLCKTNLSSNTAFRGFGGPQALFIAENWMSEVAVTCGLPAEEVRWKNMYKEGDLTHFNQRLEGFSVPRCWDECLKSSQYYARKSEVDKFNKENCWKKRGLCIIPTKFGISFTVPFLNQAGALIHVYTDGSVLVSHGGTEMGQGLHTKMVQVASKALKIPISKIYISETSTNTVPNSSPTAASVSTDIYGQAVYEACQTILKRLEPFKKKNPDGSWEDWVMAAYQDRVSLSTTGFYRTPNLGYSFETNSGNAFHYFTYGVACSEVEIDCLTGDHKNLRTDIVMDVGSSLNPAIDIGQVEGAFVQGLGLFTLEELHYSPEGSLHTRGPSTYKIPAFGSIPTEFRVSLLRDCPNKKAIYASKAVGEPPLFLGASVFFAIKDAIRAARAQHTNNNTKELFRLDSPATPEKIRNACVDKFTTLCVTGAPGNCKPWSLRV

In the case of TGPLGPSPGP [Peptide S2], the “XOD enzyme activity inhibition” value is “completely inhibited” and the IC50 (as a rule, the concentration at which inhibition is half-maximal) was 0.000125 M. The IC50 (IC50(M), Table 5, molar) stood at 0.000125 M. In addition, under “read-out: XOD activity (%)”, the activity at 50 µg/mL turned out to be 80%, the activity at 100 µg/mL worked out at 55.8% and the activity at 200 µg/mL was 17.9%.
On to VPSGPLGPEGPR [Peptide S1], for which the concentration for half-maximal inhibition (IC50) (IC50(M), Table 5, molar) was 0.00275 M. Under “same reaction system”, this compound showed an IC50 of 0.00275 M. Besides, where the note is “read-out: XOD activity (%)”, the activity at 2500 µg/mL is 57.6%, the activity at 5000 µg/mL turned out to be 36.7% and the activity at 10000 µg/mL amounted to 26.9%.
Take `Oc1ncnc2[nH]ncc12` [Allopurinol, reference compound]: under “concentration 30 μg/mL”, the “XOD enzyme activity retained” value was “about 10%”. For the setting “read-out: XOD activity (%)”, the activity at 0.2 µg/mL was 59.4%, the activity at 0.4 µg/mL is 34.7% and the activity at 0.8 µg/mL is 31.2%.
Turning to HDLPLPLPE [Peptide S3], the “XOD enzyme activity inhibition” value is “completely inhibited” and the IC50 is 5.82e-05 M. The IC50 (IC50(M), Table 5, molar) came out at 5.82e-05 M. Besides, under “read-out: XOD activity (%)”, the activity at 20 µg/mL stood at 87.2%, the activity at 40 µg/mL is 67.3% and the activity at 80 µg/mL came out at 46.9%.
Turning to DNLPPLPK [Peptide S4], the “XOD enzyme activity inhibition” value was “completely inhibited” and the IC50 is 6.72e-05 M. Moreover, the IC50 (IC50(M), Table 5, molar) worked out at 6.72e-05 M. Also, where the note is “read-out: XOD activity (%)”, the activity at 20 µg/mL amounted to 87.9%, the activity at 40 µg/mL stood at 67.7% and the activity at 80 µg/mL stood at 43.2%.
